Measured values: article PMC7614683, “A small molecule PI3Kα activator for cardioprotection and neuroregeneration” (Nature, 2023)

What was measured:
Assay in all cases: SelectScreen LanthaScreen Binding
Conditions in all cases: 1000 nM
CDK8/cyclin C = CDK8/cyclin C (Homo sapiens, UniProt P49336)
Description: (§1) 133 protein kinases and 7 lipid kinases were counterscreened, with 1938 used at 1 μM, using the Adapta, Lantha and Z-LYTE assays (SelectScreen Kinase Profiling Service; Thermofisher – experimental details of these assays can be found here: https://www.thermofisher.com/uk/en/home/industrial/pharma-biopharma/drug-discovery-development/target-and-lead-identification-and-validation/kinasebiology/kinase-activity-assays.html. The tree represention in KinMap[59] generated courtesy of Cell Signaling Technology, Inc. (www.cellsignal.com). mTORC1 (mTOR/RAPTOR/LST8) protein complex and ATM kinase and substrates were produced as previously described[57],[60]. Screening of 1938 was conducted using SuperSep Phos-Tag 50 μmol/l 100 x 100 x 6.6 mm 17-well (192-18001/199-18011) gels. For ATM assays, 100 nM ATM was incubated for 30 min at 30°C with 5 μM GST-p53 and 1 mM ATP, in the absence or presence of 200 μM 1938 in ATM Kinase Buffer (50 mM HEPES pH 7.5, 100 mM NaCl, 10% glycerol, 2 mM […], 5 mM MgCl2). As a positive control for ATM activation, the same reaction was carried out with 100 nM ATM/5 μM GST-p53/1 mM ATP in the presence of 100 nM Mre11-Rad50-Nbs1 (MRN) complex, a known activator of ATM[61]. For mTORC1 assays, 50 nM mTORC1 complex (mTOR/LST8/RAPTOR) was incubated for 3 h at 30°C with 15 μM 4E-BP1, 10 mM MgCl2 and 250 μM ATP, in the absence or presence of 200 μM 1938. As a ‘positive’ control, a higher concentration (150 nM) of mTORC1 complex (mTOR/LST8/RAPTOR) was incubated for 3 h at 30°C with 15 μM 4E-BP1, 10 mM MgCl2 and 250 μM ATP. Kinase reactions were quenched by addition of SDS-PAGE Loading Buffer (as per manufacturer’s instructions) and freezing at -20°C before being run on the Phos-tag gels at 150 V for 90 min. Gels were then stained using InstantBlue™ Coomassie, and quantified using BioRad Image Lab Software. Kinase assays were carried out in triplicate.

CLK4 = CLK4 (Homo sapiens, UniProt Q9HAZ1)
Description: as §1

FGFR1 V561M = FGFR1 V561M (Homo sapiens, UniProt P11362, V561M)
Description: as §1

[1] = target: T1, MAP3K7/MAP3K7IP1 (TAK1-TAB1) (Homo sapiens, UniProt O43318)
T1 sequence (O43318 with tags, fused parts or gaps limits assumed): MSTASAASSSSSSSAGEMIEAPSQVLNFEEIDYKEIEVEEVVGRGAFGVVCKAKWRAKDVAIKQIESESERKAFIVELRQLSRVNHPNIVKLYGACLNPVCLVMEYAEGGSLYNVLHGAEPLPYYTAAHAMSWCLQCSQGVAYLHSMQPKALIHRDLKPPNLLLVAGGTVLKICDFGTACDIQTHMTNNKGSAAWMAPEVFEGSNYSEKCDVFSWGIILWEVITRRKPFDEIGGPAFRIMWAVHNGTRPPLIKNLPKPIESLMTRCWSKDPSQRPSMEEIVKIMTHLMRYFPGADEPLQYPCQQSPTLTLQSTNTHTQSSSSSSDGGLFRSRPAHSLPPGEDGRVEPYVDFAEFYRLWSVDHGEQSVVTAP
Description: as §1

STK17A (DRAK1) = target: T2, STK17A (DRAK1) (Homo sapiens, UniProt Q9UEE5)
T2 sequence (Q9UEE5 1-414): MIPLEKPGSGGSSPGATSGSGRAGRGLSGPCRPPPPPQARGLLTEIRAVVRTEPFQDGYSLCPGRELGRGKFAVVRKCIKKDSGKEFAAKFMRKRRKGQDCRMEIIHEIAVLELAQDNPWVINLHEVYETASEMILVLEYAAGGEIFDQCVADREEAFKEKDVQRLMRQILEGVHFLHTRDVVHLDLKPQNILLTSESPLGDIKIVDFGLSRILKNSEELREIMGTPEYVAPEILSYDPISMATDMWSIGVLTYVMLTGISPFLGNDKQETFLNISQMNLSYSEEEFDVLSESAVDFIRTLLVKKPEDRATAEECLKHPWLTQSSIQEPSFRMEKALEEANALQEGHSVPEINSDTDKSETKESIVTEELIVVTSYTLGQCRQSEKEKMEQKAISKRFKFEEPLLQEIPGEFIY
Description: as §1

Chain of CLK4 (Q9HAZ1 whole entry): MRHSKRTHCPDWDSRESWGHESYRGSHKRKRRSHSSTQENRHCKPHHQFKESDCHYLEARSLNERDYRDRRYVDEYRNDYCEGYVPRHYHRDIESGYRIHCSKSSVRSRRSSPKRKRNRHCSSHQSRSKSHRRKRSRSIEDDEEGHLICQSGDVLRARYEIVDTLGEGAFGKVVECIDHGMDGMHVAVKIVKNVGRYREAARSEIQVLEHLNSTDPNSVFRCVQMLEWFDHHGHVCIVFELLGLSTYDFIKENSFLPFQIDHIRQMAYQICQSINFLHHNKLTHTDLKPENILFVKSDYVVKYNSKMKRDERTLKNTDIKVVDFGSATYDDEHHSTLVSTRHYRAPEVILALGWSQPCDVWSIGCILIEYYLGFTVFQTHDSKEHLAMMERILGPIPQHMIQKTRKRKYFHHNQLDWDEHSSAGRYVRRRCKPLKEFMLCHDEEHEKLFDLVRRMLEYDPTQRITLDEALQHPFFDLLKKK
Chain of FGFR1 V561M (P11362 22-822 V561M): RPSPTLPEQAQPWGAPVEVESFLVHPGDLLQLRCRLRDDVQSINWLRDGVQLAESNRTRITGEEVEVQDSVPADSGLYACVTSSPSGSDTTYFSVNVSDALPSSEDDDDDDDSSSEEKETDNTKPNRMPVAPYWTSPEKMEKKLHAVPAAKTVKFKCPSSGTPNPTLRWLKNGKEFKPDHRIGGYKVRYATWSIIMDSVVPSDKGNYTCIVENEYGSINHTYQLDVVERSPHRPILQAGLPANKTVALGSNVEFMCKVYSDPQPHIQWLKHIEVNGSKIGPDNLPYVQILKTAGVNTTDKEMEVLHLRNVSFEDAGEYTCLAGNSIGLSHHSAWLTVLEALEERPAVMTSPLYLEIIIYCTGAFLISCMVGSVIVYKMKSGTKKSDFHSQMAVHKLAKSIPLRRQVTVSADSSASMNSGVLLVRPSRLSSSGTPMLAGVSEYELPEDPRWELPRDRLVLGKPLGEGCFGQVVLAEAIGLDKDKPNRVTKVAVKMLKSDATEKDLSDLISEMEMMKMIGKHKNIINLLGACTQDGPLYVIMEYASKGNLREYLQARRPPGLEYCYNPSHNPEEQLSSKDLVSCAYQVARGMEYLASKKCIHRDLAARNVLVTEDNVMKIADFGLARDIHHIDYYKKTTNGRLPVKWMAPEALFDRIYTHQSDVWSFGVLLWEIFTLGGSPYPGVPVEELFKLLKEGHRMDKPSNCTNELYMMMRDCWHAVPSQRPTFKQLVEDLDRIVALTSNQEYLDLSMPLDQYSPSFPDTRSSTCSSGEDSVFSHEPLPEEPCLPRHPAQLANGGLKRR
Chain of CDK8/cyclin C (P49336 whole entry): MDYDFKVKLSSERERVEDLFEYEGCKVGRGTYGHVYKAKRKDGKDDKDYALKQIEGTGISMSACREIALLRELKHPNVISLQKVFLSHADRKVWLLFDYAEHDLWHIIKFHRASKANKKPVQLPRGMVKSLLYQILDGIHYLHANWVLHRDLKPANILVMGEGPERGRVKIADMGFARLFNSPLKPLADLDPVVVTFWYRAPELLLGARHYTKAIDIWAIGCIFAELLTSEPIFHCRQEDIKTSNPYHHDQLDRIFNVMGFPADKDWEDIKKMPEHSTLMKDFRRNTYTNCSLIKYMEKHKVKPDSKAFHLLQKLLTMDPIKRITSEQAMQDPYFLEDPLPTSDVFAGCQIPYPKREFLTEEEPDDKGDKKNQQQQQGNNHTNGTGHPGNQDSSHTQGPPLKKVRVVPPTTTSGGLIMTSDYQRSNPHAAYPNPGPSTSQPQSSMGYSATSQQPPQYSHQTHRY
Chain of CDK8/cyclin C (P24863 whole entry partner): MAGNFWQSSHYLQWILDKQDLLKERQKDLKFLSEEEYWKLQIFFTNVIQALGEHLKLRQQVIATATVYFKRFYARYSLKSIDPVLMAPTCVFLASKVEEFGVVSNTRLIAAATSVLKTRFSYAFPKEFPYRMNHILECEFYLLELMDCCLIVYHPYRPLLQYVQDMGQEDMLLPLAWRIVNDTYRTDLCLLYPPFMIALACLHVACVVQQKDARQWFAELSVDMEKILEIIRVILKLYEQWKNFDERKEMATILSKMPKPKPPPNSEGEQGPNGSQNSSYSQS

CCN1CCN(c2ccc(Nc3cc(Nc4cccc5c4N(C(C)=O)CC5)ccn3)cc2)CC1 [Compound 1938]
% Displacement Point 1 (CDK8/cyclin C): -0.599%
% Displacement Point 2 (CDK8/cyclin C): 0.85%
% Displacement mean (CDK8/cyclin C): 0.126%
% Displacement Point 1 (CLK4): 1.72%
% Displacement Point 2 (CLK4): 6.61%
% Displacement mean (CLK4): 4%
% Displacement Point 1 (FGFR1 V561M): 8%
% Displacement Point 2 (FGFR1 V561M): 8.43%
% Displacement mean (FGFR1 V561M): 8%
% Displacement Point 1 [1]: 1%
% Displacement Point 2 [1]: -0.557%
% Displacement mean [1]: 0.201%
% Displacement Point 1 (STK17A (DRAK1)): 2.26%
% Displacement Point 2 (STK17A (DRAK1)): 10%
% Displacement mean (STK17A (DRAK1)): 6.32%
